Biological target: T1, NL20 human bronchial epithelial cells expressing human Z-AAT (Homo sapiens, UniProt P01009, E366K)
T1 construct: expressed in transfected cells; host or cells: NL20 human bronchial epithelial cells (NL20-SI line, doxycycline added)
Test: AAT Function Assay (MSD Assay NL20-SI Cell Line)
Assay type: cell-based
Settings: functionally active AAT (AAT-hNE complex) in supernatant of NL20 cells expressing human Z-AAT; read-out: NL20 Func. (EC50)
Outline: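 NL20 cells expressing Z-AAT, seeded 16,000 cells/well, received compound with doxycycline (0.1 μM final) and were incubated overnight at 37° C. Supernatants, diluted 45-fold in total, reacted with excess human neutrophil elastase; AAT-elastase complex captured on anti-AAT plates, detected with Sulfo-tagged anti-elastase by MSD electrochemiluminescence, and quantified against M-AAT standards (0.156-320 ng/mL).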

T1 sequence (P01009 25-418 E366K): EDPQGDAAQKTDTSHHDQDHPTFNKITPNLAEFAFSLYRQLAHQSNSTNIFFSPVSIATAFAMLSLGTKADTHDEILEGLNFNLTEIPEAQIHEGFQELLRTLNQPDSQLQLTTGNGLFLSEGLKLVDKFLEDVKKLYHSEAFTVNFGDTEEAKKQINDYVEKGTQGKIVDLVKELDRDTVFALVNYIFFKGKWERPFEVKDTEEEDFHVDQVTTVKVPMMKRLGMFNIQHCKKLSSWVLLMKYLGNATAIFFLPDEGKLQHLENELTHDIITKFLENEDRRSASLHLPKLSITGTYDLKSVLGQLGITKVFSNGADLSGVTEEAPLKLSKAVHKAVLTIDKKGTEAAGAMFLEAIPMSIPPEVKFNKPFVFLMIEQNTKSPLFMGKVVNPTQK

Structure (SMILES) | EC50 [µM]
CCS(=O)(=O)CCc1c(C2CCOCC2)n(-c2ccc(F)cc2)c2cc3cn[nH]c3cc12 [Compound 158, 7-(2-ethylsulfonylethyl)-5-(4-fluorophenyl)-6-tetrahydropyran-4-yl-1H-pyrrolo[2,3-f]indazole] | > 3
CNS(=O)(=O)CCc1c(C2CCOCC2)n(-c2ccc(F)cc2)c2cc3cn[nH]c3cc12 [Compound 159, 2-[5-(4-fluorophenyl)-6-tetrahydropyran-4-yl-1H-pyrrolo[2,3-f]indazol-7-yl]-N-methyl-ethanesulfonamide] | 1.16 to 3
NC(=O)[C@H]1C[C@@H](c2c(C3CCOCC3)n(-c3ccc(F)cc3)c3cc4cn[nH]c4cc32)C1 [Compound 160] | > 3
Fc1ccc(-n2c(C3CCOCC3)c(CCCn3cncn3)c3cc4[nH]ncc4cc32)cc1 [Compound 164] | > 3
Fc1ccc(-n2c(C3CCOCC3)c(CCCn3ccnc3)c3cc4[nH]ncc4cc32)cc1 [Compound 165] | 1.16 to 3
NC(=O)CCc1c(C2CCOCC2)n(-c2ccc(F)cc2)c2cc3cn[nH]c3cc12 [Compound 166, 3-[5-(4-fluorophenyl)-6-tetrahydropyran-4-yl-1H-pyrrolo[2,3-f]indazol-7-yl]propanamide] | > 3
[2H]C(C(=O)O)C([2H])c1c(C(C)C)n(-c2ccc(F)cc2)c2cc3cn[nH]c3cc12 (stereo not shown) [Compound 167, 2,3-dideuterio-3-[5-(4-fluorophenyl)-6-isopropyl-1H-pyrrolo[2,3-f]indazol-7-yl]propanoic Acid] | 1.16 to 3
[2H]C(C(=O)O)C([2H])([2H])c1c(C(C)C)n(-c2ccc(F)cc2)c2cc3cn[nH]c3cc12 (stereo not shown) [Compound 168, 2,3,3-trideuterio-3-[5-(4-fluorophenyl)-6-isopropyl-1H-pyrrolo[2,3-f]indazol-7-yl]propanoic acid] | 1.16 to 3
[2H]C([2H])(CC(=O)O)c1c(C(C)C)n(-c2ccc(F)cc2)c2cc3cn[nH]c3cc12 [Compound 169, 3,3-dideuterio-3-[5-(4-fluorophenyl)-6-isopropyl-1H-pyrrolo[2,3-f]indazol-7-yl]propanoic Acid] | 1.16 to 3
[2H]C([2H])(Cc1c(C(C)C)n(-c2ccc(F)cc2)c2cc3cn[nH]c3cc12)C(=O)O [Compound 170, 2,2-dideuterio-3-[5-(4-fluorophenyl)-6-isopropyl-1H-pyrrolo[2,3-f]indazol-7-yl]propanoic Acid] | 1.16 to 3
[2H]C([2H])(C(=O)O)C([2H])([2H])c1c(C(C)C)n(-c2ccc(F)cc2)c2cc3cn[nH]c3cc12 [Compound 171, 2,2,3,3-tetradeuterio-3-[5-(4-fluorophenyl)-6-isopropyl-1H-pyrrolo[2,3-f]indazol-7-yl]propanoic Acid] | < 1.16
CC(C)c1c(C2CNC2)c2cc3[nH]ncc3cc2n1-c1ccc(F)cc1 [Compound 174, 7-(azetidin-3-yl)-5-(4-fluorophenyl)-6-isopropyl-1H-pyrrolo[2,3-f]indazole] | > 3
COCC(C)(C)c1c(CC2CC(C(=O)O)C2)c2cc3[nH]ncc3cc2n1-c1ccc(F)cc1 (stereo not shown) [Compound 175] | 1.16 to 3
COCC(C)(C)c1c(CCC(=O)O)c2cc3[nH]ncc3cc2n1-c1ccc(F)cc1 [Compound 177] | 1.16 to 3
COCCc1c(C(C)(C)COC)n(-c2ccc(F)cc2)c2cc3cn[nH]c3cc12 [Compound 178] | 1.16 to 3
COCC(C)(C)c1c(CCCN)c2cc3[nH]ncc3cc2n1-c1ccc(F)cc1 [Compound 179] | > 3
COCC(C)(C)c1c(CCCNC(N)=O)c2cc3[nH]ncc3cc2n1-c1ccc(F)cc1 [Compound 180] | 1.16 to 3
COCC(C)(C)c1c(CCCNC(=O)OCc2ccccc2)c2cc3[nH]ncc3cc2n1-c1ccc(F)cc1 [Compound 181] | > 3

The remaining lines, values ahead:

EC50 [µM] | Structure (SMILES)
1.16 to 3 | COCC(C)(C)c1c(CC2CCS(=O)(=O)CC2)c2cc3[nH]ncc3cc2n1-c1ccc(F)cc1 [Compound 182]
> 3 | COCC(C)(C)c1c(CCC(N)=O)c2cc3[nH]ncc3cc2n1-c1ccc(F)cc1 [Compound 183]
> 3 | C[C@H](O)C(=O)N1CC2(CC(c3c(C4CCOCC4)n(-c4ccc(F)c(F)c4)c4cc5cn[nH]c5cc34)C2)C1 [Compound 184, (2S)-1-[6-[5-(3,4-difluorophenyl)-6-tetrahydropyran-4-yl-1H-pyrrolo[2,3-f]indazol-7-yl]-2-azaspiro[3.3]heptan-2-yl]-2-hydroxy-propan-1-one]
1.16 to 3 | C[C@@H](O)C(=O)N1CC2(CC(c3c(C4CCOCC4)n(-c4ccc(F)c(F)c4)c4cc5cn[nH]c5cc34)C2)C1 [Compound 185, (2R)-1-[6-[5-(3,4-difluorophenyl)-6-tetrahydropyran-4-yl-1H-pyrrolo[2,3-f]indazol-7-yl]-2-azaspiro[3.3]heptan-2-yl]-2-hydroxy-propan-1-one]
> 3 | N#Cc1n[nH]c2cc3c(C4CC5(CC(C(=O)O)C5)C4)c(C4CCOCC4)n(-c4ccc(F)c(F)c4)c3cc12 (stereo not shown) [Compound 186, 6-[3-cyano-5-(3,4-difluorophenyl)-6-tetrahydropyran-4-yl-1H-pyrrolo[2,3-f]indazol-7-yl]spiro[3.3]heptane-2-carboxylic Acid]
1.16 to 3 | [2H]c1c([2H])c(-n2c(C(C)C)c(CCC(=O)O)c3cc4[nH]ncc4cc32)c([2H])c([2H])c1F [Compound 188, 3-[6-isopropyl-5-(2,3,5,6-tetradeuterio-4-fluoro-phenyl)-1H-pyrrolo[2,3-f]indazol-7-yl]propanoic Acid]
1.16 to 3 | [2H]c1n[nH]c2c([2H])c3c(CC([2H])([2H])C(=O)O)c(C([2H])(C)C)n(-c4ccc(F)cc4)c3c([2H])c12 [Compound 189, 2,2-dideuterio-3-[3,4,8-trideuterio-6-(1-deuterio-1-methyl-ethyl)-5-(4-fluorophenyl)-1H-pyrrolo[2,3-f]indazol-7-yl]propanoic Acid]
> 3 | CC(C)(CC#N)c1c(CCC(=O)O)c2cc3[nH]ncc3cc2n1-c1ccc(F)cc1 [Compound 190, 3-[6-(2-cyano-1,1-dimethyl-ethyl)-5-(4-fluorophenyl)-1H-pyrrolo[2,3-f]indazol-7-yl]propanoic Acid]
> 3 | CC(C)(CC#N)c1c(CCC(N)=O)c2cc3[nH]ncc3cc2n1-c1ccc(F)cc1 [Compound 191, 3-[6-(2-cyano-1,1-dimethyl-ethyl)-5-(4-fluorophenyl)-1H-pyrrolo[2,3-f]indazol-7-yl]propanamide]
1.16 to 3 | C=C(C)c1c(CCC(=O)O)c2cc3[nH]ncc3cc2n1-c1ccc(F)cc1 [Compound 192, 3-[5-(4-fluorophenyl)-6-isopropenyl-1H-pyrrolo[2,3-f]indazol-7-yl]propanoic Acid]
1.16 to 3 | [2H]C([2H])([2H])C([2H])(c1c(CCC(=O)O)c2cc3[nH]ncc3cc2n1-c1ccc(F)cc1)C([2H])([2H])[2H] [Compound 193, 3-[5-(4-fluorophenyl)-6-[1,2,2,2-tetradeuterio-1-(trideuteriomethyl)ethyl]-1H-pyrrolo[2,3-f]indazol-7-yl]propanoic Acid]
> 3 | CC(C)c1c(CCC(=O)O)n(-c2ccc(F)cc2)c2cc3cn[nH]c3cc12 [Compound 194, 3-[5-(4-fluorophenyl)-7-isopropyl-1H-pyrrolo[2,3-f]indazol-6-yl]propanoic Acid]
> 3 | Cc1cc(-n2c(C(C)C)c(CCC(=O)O)c3cc4c(cnn4C)cc32)ccc1F [Compound 195, 3-[5-(4-fluoro-3-methyl-phenyl)-6-isopropyl-1-methyl-pyrrolo[2,3-f]indazol-7-yl]propanoic Acid]

Source: patent US11623924B2, “Modulators of alpha-1 antitrypsin” (Vertex Pharmaceuticals Incorporated, priority 2018, dated 2023)
